According to patent US20260258003A1, “SLACK-ACTIVATING COMPOUNDS AND THEIR MEDICAL USE” (Johann Wolfgang Goethe-Universität Frankfurt am Main, priority 2023, published 2026):

How the values were obtained:
human Slack = molecular target: T1, human Slack (Homo sapiens, UniProt Q5JUK3); assay: FluxOR potassium ion channel assay in HEK-Slack cells; format: cell-based; conditions: Na+ free buffer with 2 mM Ca2+, 2 mM Mg2+, 0.03% DMSO, mean with 95% confidence interval; for EC50: read-out: FluxOR assay EC50; for Emax: read-out: FluxOR assay EMAX (% relative to Loxapine)
T1 construct: host or cells: HEK293
T1 sequence (Q5JUK3 1-1230): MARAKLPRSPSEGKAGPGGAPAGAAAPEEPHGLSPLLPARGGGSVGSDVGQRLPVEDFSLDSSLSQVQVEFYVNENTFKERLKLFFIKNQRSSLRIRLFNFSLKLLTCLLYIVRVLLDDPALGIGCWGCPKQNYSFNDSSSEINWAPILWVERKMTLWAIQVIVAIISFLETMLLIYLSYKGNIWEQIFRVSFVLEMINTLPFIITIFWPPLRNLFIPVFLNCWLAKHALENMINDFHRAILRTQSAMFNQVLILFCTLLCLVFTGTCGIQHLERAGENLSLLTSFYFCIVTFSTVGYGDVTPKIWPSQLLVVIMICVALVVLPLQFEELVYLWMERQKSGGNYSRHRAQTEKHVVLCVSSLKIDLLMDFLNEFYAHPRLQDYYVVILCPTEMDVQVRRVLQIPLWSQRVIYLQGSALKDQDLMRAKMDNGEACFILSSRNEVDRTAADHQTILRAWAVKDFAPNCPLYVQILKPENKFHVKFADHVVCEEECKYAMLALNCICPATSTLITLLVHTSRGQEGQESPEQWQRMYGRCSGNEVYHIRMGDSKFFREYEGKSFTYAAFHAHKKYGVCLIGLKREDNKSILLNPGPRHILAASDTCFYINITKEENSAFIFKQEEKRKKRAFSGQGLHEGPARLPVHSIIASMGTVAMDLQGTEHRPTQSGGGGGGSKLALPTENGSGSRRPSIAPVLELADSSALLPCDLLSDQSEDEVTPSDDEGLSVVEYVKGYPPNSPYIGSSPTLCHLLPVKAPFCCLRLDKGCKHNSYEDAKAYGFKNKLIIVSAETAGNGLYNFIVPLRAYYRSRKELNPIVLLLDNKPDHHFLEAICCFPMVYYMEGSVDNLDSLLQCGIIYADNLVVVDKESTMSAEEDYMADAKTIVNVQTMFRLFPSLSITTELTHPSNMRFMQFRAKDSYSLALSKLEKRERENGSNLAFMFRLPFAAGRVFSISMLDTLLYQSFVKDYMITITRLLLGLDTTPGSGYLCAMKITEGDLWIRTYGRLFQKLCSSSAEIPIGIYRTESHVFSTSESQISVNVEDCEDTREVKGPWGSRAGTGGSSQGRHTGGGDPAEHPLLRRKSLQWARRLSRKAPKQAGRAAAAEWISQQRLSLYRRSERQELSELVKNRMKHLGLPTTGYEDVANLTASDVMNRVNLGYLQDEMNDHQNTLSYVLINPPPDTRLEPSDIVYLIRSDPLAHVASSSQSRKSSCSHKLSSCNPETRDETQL
Method: For that purpose, cultured HEK293 cells stably expressing human Slack (herein referred to as HEK-Slack cells) were incubated with compounds in a Na^+ free buffer to prevent compound-independent Slack activation by monovalent cations^7,19.
In detail, in these experiments, the Slack-activating efficacy and potency of the novel compounds was determined using a commercial FluxOR™ Potassium Ion Channel Assay (Invitrogen). HEK293 cells stably expressing human Slack (herein referred to as HEK-Slack cells) were plated at a density of 50,000 cells per well of a poly-D-lysine coated (75 μg/mL, Sigma Aldrich) 96-well, black-walled microplate with clear bottom (Greiner Bio-One) in DMEM containing 10% FBS and 1% penicillin/streptomycin 24 hours prior to assaying.
On the experiment day, cells were loaded with FluxOR™ dye according to the manufacturer's protocol. A Na^+-free assay buffer containing 140 mM choline chloride, 5 mM KCl, 2 mM CaCl2), 2 mM MgSO4, 10 mM HEPES, 5.55 mM glucose, adjusted to pH 7.4 with KOH, was used. To reduce background fluorescence all assay components were complemented by 10% BackDrop™ Background Suppressor (Invitrogen). […]
After washing steps, cells were incubated with compounds for 30 min at 37° C. All compounds were prepared as a 33.3 mM DMSO stock and diluted at the experimental day to a final concentration of 100, 50, 25, 12.5, 6.25, and 3.125 μM in assay buffer containing […] DMSO. […] After stimulation with Tl2SO4 solution, the fluorescence was measured over 100 s (excitation 485 nm, emission 525 nm) using an Infinite M200 Microplate Reader (Tecan). Assays run in triplicate and the ratio to baseline fluorescence was calculated for all time points. Dose-response curves comprising six concentrations were performed in triplets using fluorescence/fluorescenceBaseline ratios at the 100th second.

[1] = test system: chloroquine-induced scratching behavior of mice; assay: Chloroquine-induced itch model, topical application of creme; format: in vivo; conditions: 5% in hydrophilic creme (Basiscreme DAC), topical 30 min prior to s.c. chloroquine
Method: Animals: Experiments were performed in 8-16 week-old C57BL/6N mice (Charles River, Sulzfeld, Germany) of either sex. The animals were housed under a 12 h light/dark cycle with access to food and water ad libitum. All experiments adhered to the Animal Research: Reporting on In Vivo Experiments (ARRIVE) guidelines and were approved by and conducted in accordance with the regulations of the local Animal Welfare authorities (Regierungspräsidium Darmstadt, Germany; approval number V54-19c20/15-FR/2011). All behavioral studies were conducted during the light cycle of the day at room temperature (20-24° C.) by an observer blinded for the treatment of the animals.
Drug formulation: A creme formulation of Compound 6 and Compound 21 was prepared by mixing a hydrophilic creme (Basiscreme DAC) with 5% of each Slack activator.
Behavioral assessment: Three to four days before the day of the experiment, the fur on the dorsolateral aspect of the neck was shaved under brief isoflurane anesthesia. On the testing day, Compound 6 creme, Compound 21 creme, or creme vehicle were applied topically on the shaved region of the neck under brief isoflurane anesthesia and the mice were habituated to a Plexiglas cylinder (30 cm in diameter) for 30 min immediately thereafter. […] The number of scratching bouts directed towards the nape of the neck was assessed over 30 min by videotaping.

[2] = test system: heart rate and breath rate of mice; assay: Pulse oximetry on conscious, freely moving mice; format: in vivo; conditions: 10 mg/kg i.p., observation period of 30 min
Method: Finally, potential side effects of Compound 6 were assessed by measuring cardiovascular functions by pulse oximetry.

Structure (SMILES): O=c1nc(CN2CCN(C3=Nc4ccccc4Oc4ccc(C(F)(F)F)cc43)CC2)[nH][nH]1 [Compound 11, 5-((4-(2-(Trifluoromethyl)dibenzo[b,f][1,4]oxazepin-11-yl)piperazin-1-yl)methyl)-1,2-dihydro-3H-1,2,4-triazol-3-one]
- EC50 (human Slack): 10.7 µM
- Emax (human Slack): 199%

Structure (SMILES): O=c1nc(CN2CCN(C3=Nc4cc(F)ccc4Oc4ccc(C(F)(F)F)cc43)CC2)[nH][nH]1 [Compound 18, 5-((4-(8-Fluoro-2-(trifluoromethyl)dibenzo[b,f][1,4]oxazepin-11-yl)piperazin-1-yl)methyl)-1,2-dihydro-3H-1,2,4-triazol-3-one]
- EC50 (human Slack): 11.2 µM
- Emax (human Slack): 127%

Structure (SMILES): O=c1nc(CN2CCN(C3=Nc4cc(F)ccc4Oc4ccc(Cl)cc43)CC2)[nH][nH]1 [Compound 19, 5-((4-(2-Chloro-8-fluorodibenzo[b,f][1,4]oxazepin-11-yl)piperazin-1-yl)methyl)-1,2-dihydro-3H-1,2,4-triazol-3-one]
- EC50 (human Slack): 21.1 µM
- Emax (human Slack): 117%

Structure (SMILES): O=c1nc(CN2CCCN(C3=Nc4ccccc4Oc4ccc(C(F)(F)F)cc43)CC2)[nH][nH]1 [Compound 20, 5-((4-(2-(Trifluoromethyl)dibenzo[b,f][1,4]oxazepin-11-yl)-1,4-diazepan-1-yl)methyl)-1,2-dihydro-3H-1,2,4-triazol-3-one]
- EC50 (human Slack): 26.2 µM
- Emax (human Slack): 129%

Structure (SMILES): OCCN1CCN(C2=Nc3cc(F)ccc3Oc3ccc(C(F)(F)F)cc32)CC1 [Compound 21, 2-(4-(8-Fluoro-2-(trifluoromethyl)dibenzo[b,f][1,4]oxazepin-11-yl)piperazin-1-yl) ethan-1-ol]
- EC50 (human Slack): 10.5 µM
- Emax (human Slack): 264%
- chloroquine-induced scratching behavior after topical application [1]: significantly ameliorated scratching behavior

Structure (SMILES): CN1CC[C@]23c4c5ccc(O)c4O[C@H]2[C@@H](O)C=C[C@H]3[C@H]1C5 [morphine, reference compound]
- breath rate [2]: significantly reduced
- heart rate [2]: significantly reduced
